# Data reported in US9624229B2, “Pyrimidine-2-amine compounds and their use as inhibitors of JAK kinases” (Rigel Pharmaceuticals, Inc., priority 2008, dated 2017).
# Where two headings read alike, the source gives them in different places.
# Target: Ba/F3 V617F cells (Homo sapiens, UniProt O60674, V617F, cells depend on it)
# Assay: Proliferation assay (Cell Titer-Glo, 72 h) utilizing Ba/F3 V617F cells
# Assay type: cell-based, mouse
# Procedure, shortened: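 Ba/F3 V617F cells in RPMI/10% FBS, 1×10^5 cells/mL, exposed in duplicate to 3-fold serial compound dilutions (top 5 mM DMSO stock, diluted 1:250, added as 2× solution in 5% FBS medium) for 72 h at 37 °C. Viability by Cell Titer-Glo luminescence; IC50 reported.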
# [1] = Ba/F3 V617F cells, proliferation, level of activity to inhibit JAK2, read-out: IC50 (the source's name)
# [2] = inhibition of JAK2 activity, proliferation of Ba/F3 V617F cells, read-out: IC50 (the source's name)
# Sequence of Ba/F3 V617F cells (O60674 whole entry V617F): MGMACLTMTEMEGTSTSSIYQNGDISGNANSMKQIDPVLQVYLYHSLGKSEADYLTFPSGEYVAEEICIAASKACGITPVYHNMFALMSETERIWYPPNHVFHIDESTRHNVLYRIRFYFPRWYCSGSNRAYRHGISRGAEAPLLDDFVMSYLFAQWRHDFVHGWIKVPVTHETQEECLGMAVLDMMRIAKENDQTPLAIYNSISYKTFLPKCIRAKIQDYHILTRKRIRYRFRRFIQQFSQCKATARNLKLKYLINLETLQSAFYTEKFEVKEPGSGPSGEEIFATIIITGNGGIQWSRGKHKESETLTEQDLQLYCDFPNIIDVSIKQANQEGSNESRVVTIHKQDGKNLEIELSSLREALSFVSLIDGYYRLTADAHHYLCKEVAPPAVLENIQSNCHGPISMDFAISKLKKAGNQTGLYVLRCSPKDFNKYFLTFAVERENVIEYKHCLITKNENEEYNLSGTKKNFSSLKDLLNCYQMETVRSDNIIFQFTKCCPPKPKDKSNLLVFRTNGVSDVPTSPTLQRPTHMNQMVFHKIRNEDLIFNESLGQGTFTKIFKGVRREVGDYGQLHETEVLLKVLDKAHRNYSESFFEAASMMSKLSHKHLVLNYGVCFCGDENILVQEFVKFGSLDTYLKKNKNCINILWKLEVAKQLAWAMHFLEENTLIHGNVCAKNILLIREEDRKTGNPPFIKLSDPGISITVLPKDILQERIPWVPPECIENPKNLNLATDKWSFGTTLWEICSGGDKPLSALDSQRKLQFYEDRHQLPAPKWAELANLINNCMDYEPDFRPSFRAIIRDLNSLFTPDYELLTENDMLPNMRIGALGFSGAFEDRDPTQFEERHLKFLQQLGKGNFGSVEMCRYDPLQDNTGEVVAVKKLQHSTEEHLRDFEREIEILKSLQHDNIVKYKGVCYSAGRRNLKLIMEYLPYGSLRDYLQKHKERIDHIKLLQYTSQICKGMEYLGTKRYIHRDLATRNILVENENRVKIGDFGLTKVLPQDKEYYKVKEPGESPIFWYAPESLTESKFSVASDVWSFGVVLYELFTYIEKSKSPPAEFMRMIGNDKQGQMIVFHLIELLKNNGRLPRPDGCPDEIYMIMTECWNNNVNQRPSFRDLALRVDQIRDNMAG
SMILES,GI50 [1] [nM],GI50 [2] [nM]
"CC(=O)Nc1ccc(-c2ccnc(Nc3ccc(N4CC5CCC(C4)N5C)cc3)n2)cc1 [compound 162, 4-(4-(acetamido)phenyl)-N-(4-(8-methyl-3,8-diazabicyclo[3.2.1]octan-3-yl)phenyl)pyrimidin-2-amine]",< 1000,
"CCN(CC)c1nc(-c2ccnc(Nc3ccc(N4C[C@@H]5C[C@H]4CN5C)c(C)c3)n2)cs1 [compound 163, 4-(2-(diethylamino)thiazol-4-yl)-N-(3-methyl-4-((1S,4S)-5-methyl-2,5-diazabicyclo[2.2.1]heptan-2-yl)phenyl)pyrimidin-2-amine]",< 1000,
"CCN(CC)c1nc(-c2ccnc(Nc3ccc(N4C[C@@H]5C[C@H]4CN5C)c(F)c3)n2)cs1 [compound 164, 4-(2-(diethylamino)thiazol-4-yl)-N-(3-fluoro-4-((1S,4S)-5-methyl-2,5-diazabicyclo[2.2.1]heptan-2-yl)phenyl)pyrimidin-2-amine]",< 1000,
"Cc1cc(Nc2nccc(-c3cnc4c(c3)OC(C)(C)C(=O)N4)n2)ccc1N1CC2CCC(C1)N2C [compound 165, 4-(2,2-dimethyl-3-oxo-3,4-dihydro-2H-pyrido[3,2-b][1,4]oxazin-7-yl)-N-(3-methyl-4-(8-methyl-3,8-diazabicyclo[3.2.1]octan-3-yl)phenyl)pyrimidin-2-amine]",< 1000,
"Cc1cc(Nc2nccc(-c3ccc(N4CCOCC4)nc3)n2)ccc1N1CC2CCC(C1)N2C [compound 166, 4-(6-(morpholin-4-yl)pyridin-3-yl)-N-(3-methyl-4-(8-methyl-3,8-diazabicyclo[3.2.1]octan-3-yl)phenyl)pyrimidin-2-amine]",< 1000,
"Cc1cc(Nc2nccc(-c3ccc(NS(C)(=O)=O)nc3)n2)ccc1N1CC2CCC(C1)N2C [compound 167, 4-(6-(methylsulfonylamino)pyridin-3-yl)-N-(3-methyl-4-(8-methyl-3,8-diazabicyclo[3.2.1]octan-3-yl)phenyl)pyrimidin-2-amine]",< 1000,
"Cc1cc(Nc2nccc(-c3ccc(NC(=O)C(C)(C)C)cc3)n2)ccc1N1CC2CCC(C1)N2C [compound 168, 4-(4-(t-butylcarbonylamino)phenyl)-N-(3-methyl-4-(8-methyl-3,8-diazabicyclo[3.2.1]octan-3-yl)phenyl)pyrimidin-2-amine]",< 1000,
"Cc1cc(Nc2nccc(-c3cc[nH]c3)n2)ccc1N1C[C@@H]2C[C@H]1CN2C [compound 169, 4-(1H-pyrrol-3-yl)-N-(3-methyl-4-((1S,4S)-5-methyl-2,5-diazabicyclo[2.2.1]heptan-2-yl)phenyl)pyrimidin-2-amine]",1000 to 10000,
"CN1C[C@@H]2C[C@H]1CN2c1ccc(Nc2nccc(-c3cc[nH]c3)n2)cc1 [compound 170, 4-(1H-pyrrol-3-yl)-N-(4-((1S,4S)-5-methyl-2,5-diazabicyclo[2.2.1]heptan-2-yl)phenyl)pyrimidin-2-amine]",1000 to 10000,
"CN1C[C@@H]2C[C@H]1CN2c1ccc(Nc2nccc(-c3cc[nH]c3)n2)cc1C(F)(F)F [compound 171, 4-(1H-pyrrol-3-yl)-N-(3-trifluoromethyl-4-((1S,4S)-5-methyl-2,5-diazabicyclo[2.2.1]heptan-2-yl)phenyl)pyrimidin-2-amine]",< 1000,
"CC1(C)Oc2cc(-c3ccnc(Nc4ccc(N5C[C@@H]6C[C@H]5CN6)c(C(F)(F)F)c4)n3)cnc2NC1=O [compound 172, 4-(2,2-dimethyl-3-oxo-3,4-dihydro-2H-pyrido[3,2-b][1,4]oxazin-7-yl)-N-(3-trifluoromethyl-4-((1S,4S)-2,5-diazabicyclo[2.2.1]heptan-2-yl)phenyl)pyrimidin-2-amine]",< 1000,
"CCOc1ccc(-c2ccnc(Nc3ccc(N4C[C@@H]5C[C@H]4CN5C)c(C)c3)n2)cn1 [compound 173, 4-(6-ethoxypyridin-3-yl)-N-(3-methyl-4-((1S,4S)-5-methyl-2,5-diazabicyclo[2.2.1]heptan-2-yl)phenyl)pyrimidin-2-amine]",< 1000,
"CCOc1ccc(-c2ccnc(Nc3ccc(N4C[C@@H]5C[C@H]4CN5C)c(F)c3)n2)cn1 [compound 174, 4-(6-ethoxypyridin-3-yl)-N-(3-fluoro-4-((1S,4S)-5-methyl-2,5-diazabicyclo[2.2.1]heptan-2-yl)phenyl)pyrimidin-2-amine]",1000 to 10000,
"Cc1cc(Nc2nccc(-c3csc(N(C)C)n3)n2)ccc1N1C[C@@H]2C[C@H]1CN2C [compound 175, 4-(2-(dimethylamino)thiazol-4-yl)-N-(3-methyl-4-((1S,4S)-5-methyl-2,5-diazabicyclo[2.2.1]heptan-2-yl)phenyl)pyrimidin-2-amine]",1000 to 10000,
"CN(C)c1nc(-c2ccnc(Nc3ccc(N4C[C@@H]5C[C@H]4CN5C)c(F)c3)n2)cs1 [compound 176, 4-(2-(dimethylamino)thiazol-4-yl)-N-(3-fluoro-4-((1S,4S)-5-methyl-2,5-diazabicyclo[2.2.1]heptan-2-yl)phenyl)pyrimidin-2-amine]",1000 to 10000,
"CN(C)c1nc(-c2ccnc(Nc3ccc(N4C[C@@H]5C[C@H]4CN5C)nc3)n2)cs1 [compound 177, 4-(2-(dimethylamino)thiazol-4-yl)-N-(6-((1S,4S)-5-methyl-2,5-diazabicyclo[2.2.1]heptan-2-yl)pyridin-3-yl)pyrimidin-2-amine]",,> 20000
"Cc1cc(Nc2nccc(-c3cnc(N4CCOCC4)cn3)n2)ccc1N1C[C@@H]2C[C@H]1CN2C [compound 178, 4-(5-(morpholin-4-yl)pyrazin-2-yl)-N-(3-methyl-4-((1S,4S)-5-methyl-2,5-diazabicyclo[2.2.1]heptan-2-yl)phenyl)pyrimidin-2-amine]",1000 to 10000,
"CN1C[C@@H]2C[C@H]1CN2c1ccc(Nc2nccc(-c3cnc(N4CCOCC4)cn3)n2)cc1F [compound 179, 4-(5-(morpholin-4-yl)pyrazin-2-yl)-N-(3-fluoro-4-((1S,4S)-5-methyl-2,5-diazabicyclo[2.2.1]heptan-2-yl)phenyl)pyrimidin-2-amine]",1000 to 10000,
"CN1C[C@@H]2C[C@H]1CN2c1ccc(Nc2nccc(-c3cnc(N4CCOCC4)cn3)n2)cn1 [compound 180, 4-(5-(morpholin-4-yl)pyrazin-2-yl)-N-(6-((1S,4S)-5-methyl-2,5-diazabicyclo[2.2.1]heptan-2-yl)pyridin-3-yl)pyrimidin-2-amine]",,1000 to 10000
"CCOC(C)c1ccc(-c2ccnc(Nc3ccc(N4C[C@@H]5C[C@H]4CN5C)c(C)c3)n2)cc1 (stereo partly drawn) [compound 181, 4-(4-(1-ethoxyethyl)phenyl)-N-(3-methyl-4-((1S,4S)-5-methyl-2,5-diazabicyclo[2.2.1]heptan-2-yl)phenyl)pyrimidin-2-amine]",1000 to 10000,
"CCOC(C)c1ccc(-c2ccnc(Nc3ccc(N4C[C@@H]5C[C@H]4CN5C)c(F)c3)n2)cc1 (stereo partly drawn) [compound 182, 4-(4-(1-ethoxyethyl)phenyl)-N-(3-fluoro-4-((1S,4S)-5-methyl-2,5-diazabicyclo[2.2.1]heptan-2-yl)phenyl)pyrimidin-2-amine]",1000 to 10000,
"CN(C)c1ccc(-c2ccnc(Nc3ccc(N4C[C@@H]5C[C@H]4CN5C)cc3)n2)cn1 [compound 183, 4-(6-(dimethylamino)pyridin-3-yl)-N-(4-((1S,4S)-5-methyl-2,5-diazabicyclo[2.2.1]heptan-2-yl)phenyl)pyrimidin-2-amine]",< 1000,
"CN1C[C@@H]2C[C@H]1CN2c1ccc(Nc2nccc(-c3ccc(N4CCOCC4)nc3)n2)cc1 [compound 184, 4-(6-(morpholin-4-yl)pyridin-3-yl)-N-(4-((1S,4S)-5-methyl-2,5-diazabicyclo[2.2.1]heptan-2-yl)phenyl)pyrimidin-2-amine]",< 1000,
